The target of this experiment is T1, human Nav1.8 (hNav1.8) ion channel (Homo sapiens, UniProt Q9Y5Y9).
T1 construct: expressed in transfected cells; host or cells: HEK293
T1 sequence (Q9Y5Y9 whole entry): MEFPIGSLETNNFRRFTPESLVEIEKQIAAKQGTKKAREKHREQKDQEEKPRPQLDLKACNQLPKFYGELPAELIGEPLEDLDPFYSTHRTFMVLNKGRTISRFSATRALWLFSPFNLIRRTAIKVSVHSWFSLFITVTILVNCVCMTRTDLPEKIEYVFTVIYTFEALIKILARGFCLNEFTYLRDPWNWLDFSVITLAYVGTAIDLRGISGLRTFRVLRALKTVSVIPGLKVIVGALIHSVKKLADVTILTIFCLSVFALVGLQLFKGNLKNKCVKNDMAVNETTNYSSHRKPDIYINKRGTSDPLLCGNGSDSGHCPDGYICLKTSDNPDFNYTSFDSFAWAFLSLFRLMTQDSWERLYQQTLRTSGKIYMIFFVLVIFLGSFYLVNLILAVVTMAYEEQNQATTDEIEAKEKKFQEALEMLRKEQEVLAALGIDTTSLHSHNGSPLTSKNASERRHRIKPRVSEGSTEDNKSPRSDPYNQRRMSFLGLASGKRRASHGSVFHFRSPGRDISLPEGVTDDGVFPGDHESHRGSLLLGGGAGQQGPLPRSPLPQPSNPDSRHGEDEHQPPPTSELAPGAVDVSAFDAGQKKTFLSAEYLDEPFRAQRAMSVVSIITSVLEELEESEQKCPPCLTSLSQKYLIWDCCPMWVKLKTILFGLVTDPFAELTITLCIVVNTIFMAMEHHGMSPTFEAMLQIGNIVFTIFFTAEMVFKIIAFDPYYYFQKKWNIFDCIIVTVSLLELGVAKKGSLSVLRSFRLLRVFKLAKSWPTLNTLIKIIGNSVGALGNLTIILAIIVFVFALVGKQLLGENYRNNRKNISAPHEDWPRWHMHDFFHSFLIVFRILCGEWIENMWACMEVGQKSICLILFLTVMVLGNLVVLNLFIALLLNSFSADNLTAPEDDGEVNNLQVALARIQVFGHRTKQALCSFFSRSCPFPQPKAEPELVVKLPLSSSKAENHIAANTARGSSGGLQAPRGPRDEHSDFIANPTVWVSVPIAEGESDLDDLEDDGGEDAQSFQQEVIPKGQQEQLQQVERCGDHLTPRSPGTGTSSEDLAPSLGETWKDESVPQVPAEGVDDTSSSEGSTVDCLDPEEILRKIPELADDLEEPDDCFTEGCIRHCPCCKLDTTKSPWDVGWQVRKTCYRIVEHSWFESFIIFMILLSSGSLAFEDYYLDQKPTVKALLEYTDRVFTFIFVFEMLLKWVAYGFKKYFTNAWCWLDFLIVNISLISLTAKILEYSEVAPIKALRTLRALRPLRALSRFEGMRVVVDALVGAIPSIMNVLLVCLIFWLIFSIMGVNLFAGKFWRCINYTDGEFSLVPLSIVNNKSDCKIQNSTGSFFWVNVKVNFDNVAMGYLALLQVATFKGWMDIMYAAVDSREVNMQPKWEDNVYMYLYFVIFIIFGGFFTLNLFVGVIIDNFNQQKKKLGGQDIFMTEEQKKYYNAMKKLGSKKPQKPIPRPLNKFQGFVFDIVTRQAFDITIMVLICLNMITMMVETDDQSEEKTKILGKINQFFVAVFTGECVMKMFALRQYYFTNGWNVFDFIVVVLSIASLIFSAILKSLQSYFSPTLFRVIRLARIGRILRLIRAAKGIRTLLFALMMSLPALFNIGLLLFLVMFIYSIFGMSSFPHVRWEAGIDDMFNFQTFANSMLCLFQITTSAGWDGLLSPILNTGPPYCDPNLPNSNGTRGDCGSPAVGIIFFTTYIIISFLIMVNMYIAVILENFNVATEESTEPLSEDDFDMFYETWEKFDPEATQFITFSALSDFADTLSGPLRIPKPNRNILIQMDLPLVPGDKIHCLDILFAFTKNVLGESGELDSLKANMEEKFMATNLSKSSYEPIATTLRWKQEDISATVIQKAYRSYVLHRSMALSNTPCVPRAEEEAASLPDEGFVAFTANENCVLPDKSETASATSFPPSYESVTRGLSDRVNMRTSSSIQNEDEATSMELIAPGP
The experiment can be described thus: Nav1.8 channel inhibition, estimated IC50 (one or more of: fluorescence inhibition assay, PatchXpress, IonFlux HT automated patch clamp). Format: cell-based. The note with it: HEK293 cells stably expressing hNav1.8; method used per compound not stated; read-out: Activity range (estimated IC50). On the procedure:
The ability of pyridine carboxamide derivatives exemplified above to inhibit the Nav1.8 channel was determined using one or more of the methods described below.
HEK Nav1.8 β1/β2 Stably Expressing Cell Line
A HEK293 cell line stably expressing the human Nav1.8 (hNav1.8) ion channel with β1/β2 subunits was constructed. The cell line is suitable for IC50 determination in fluorescence and electrophysiological based assays. It is also suitable to form mechanism of action pharmacology studies in electrophysiological assays. HEK293 Nav 1.8 cells are grown as adherent monolayers in DMEM/high glucose media, 10% fetal bovine serum, Na pyruvate (2 mM), Hepes (10 mM) with selection agents G418 (400 mg/L) and puromycin (0.5 mg/L) at 37 degrees C., 10% CO2.
Nav 1.8 Fluorescence Inhibition Assay
Compounds were made up to or supplied as a 10-mM stock solution using DMSO as the vehicle. Concentration-response curves were generated using a Matrix multichannel pipettor. Compound source plates were made by diluting 10 mM compound stocks to create 500 μM (100×) solutions in DMSO in 96-well v-bottom plates. Compounds were then serially diluted in 100% DMSO to generate a 5 point, 4-fold dilution scheme dose response curve. 2 μL of the 100× dose response curves was then added to preincubation and stimulation assay plates. 100 μL of pre-incubation buffer and 200 μL of stimulation buffer were then added to the plates resulting in a final assay test concentration range of 5 μM to 0.02 μM with a final DMSO concentration of 1%.
On the day of assay, plates were washed to remove cell culture media using 2K EBSS buffer (135 mM NaCl, 2 mM KCl, 5 mM Glucose, 2 mM CaCl2), 1 mM MgCl2, 10 mM HEPES, pH 7.4). The Na-sensitive fluorescent dye, Asante Natrium Green-2 (ANG-2) is incubated for 60 min to allow equilibration and then washed with 2K EBSS. Plates are the transferred to a fluorescence plate reader (FLIPR™, Molecular Devices) for fluorescence measurement using an excitation wavelength of 490 nm and an emission wavelength of 565 nm. Compounds are pre-incubated at for 5 min at final test concentration in the presence of ouabain (30 μM) to inhibit Na+ efflux through Na+/K+ exchanger. Following the pre-incubation phase, hNav1.8 channels are stimulated with 10 μM of the pyrethroid deltamethrin to prevent channel inactivation. The assay was run for 15 min with vehicle and 30 μM tetracaine serving as negative and positive controls, respectively. The peak change in fluorescence relative to negative and positive control wells was calculated and fit with a logistic equation to determine IC50.
PatchXpress Nav 1.8 Inhibition Assay
HEK-Nav1.8 β1/β2 cells were recorded in whole cell patch-clamp using the PatchXpress automated patch clamp platforms (Molecular Devices). Cells suspensions were obtained by trypsinization of adherent monolayers, followed by gentle rocking for minimally 30 min. Compounds were prepared from 10 mM DMSO stocks.
Nav1.8 channel variants were evaluated using Protocol 1 (FIG. 2) in which cells were initially voltage clamped at a holding potential of −100 mV to maintain Nav1.8 in a closed resting state. After current amplitude becomes stable, the mid-point voltage of steady state inactivation was determined for each cell using a series of 5 sec conditioning steps to increasingly depolarized voltages (−100 to 0 mV) The holding potential was then reset to a voltage that produces ˜50% inactivation (Vhalf−set automatically via PatchXpress scripts) so that closed and inactivated channel inhibition can be assessed. Protocol 1 was run at a frequency of 0.1 Hz until current amplitude is steady (automatically determined by PatchXpress scripts). The effect of test reagent on Nav current amplitude was monitored using custom PatchXpress stability scripts which determines the timing of compound addition and washout. Data were processed and analyzed using DataXpress 2.0 (Molecular Devices). […]
On to `CCCc1ccccc1Oc1ncc(C(F)(F)F)cc1C(=O)Nc1cccc(S(C)(=O)=O)c1` [Example 24, N-(3-methylsulfonylphenyl)-2-(2-propylphenoxy)-5-(trifluoromethyl)pyridine-3-carboxamide], for which the IC50 was above 1000 nM.

Turning to `COc1cc(C)ccc1Oc1ncc(C(F)(F)F)cc1C(=O)Nc1cccc(S(C)(=O)=O)c1` [Example 25, 2-(2-methoxy-4-methyl-phenoxy)-N-(3-methylsulfonylphenyl)-5-(trifluoromethyl)pyridine-3-carboxamide], the IC50 was above 1000 nM.

On to `COc1cc(Cl)ccc1Oc1ncc(C(F)(F)F)cc1C(=O)Nc1cccc(S(C)(=O)=O)c1` [Example 26, 2-(4-chloro-2-methoxy-phenoxy)-N-(3-methylsulfonylphenyl)-5-(trifluoromethyl)pyridine-3-carboxamide], for which the half-maximal inhibitory concentration (IC50) was below 500 nM.

Consider `CC(C)Oc1ccccc1Oc1ncc(C(F)(F)F)cc1C(=O)Nc1cccc(S(C)(=O)=O)c1` [Example 27, 2-(2-isopropoxyphenoxy)-N-(3-methylsulfonylphenyl)-5-(trifluoromethyl)pyridine-3-carboxamide], for which the IC50 was above 1000 nM.

For the compound `Cc1cccc(C)c1Oc1ncc(C(F)(F)F)cc1C(=O)Nc1cccc(S(C)(=O)=O)c1` [Example 33, 2-(2,6-dimethylphenoxy)-N-(3-methylsulfonylphenyl)-5-(trifluoromethyl)pyridine-3-carboxamide], the IC50 is above 1000 nM.

In the case of `CS(=O)(=O)c1cccc(NC(=O)c2cc(C(F)(F)F)cnc2Oc2ccc(F)cc2)c1` [Example 34, 2-(4-fluorophenoxy)-N-(3-methylsulfonyl-phenyl)-5-(trifluoromethyl)pyridine-3-carboxamide], the IC50 was above 1000 nM.

On to `COc1cc(F)ccc1Oc1ncc(C(F)(F)F)cc1C(=O)Nc1cccc(S(C)(=O)=O)c1` [Example 35, 2-(4-fluoro-2-methoxy-phenoxy)-N-(3-methylsulfonyl-phenyl)-5-(trifluoromethyl)pyridine-3-carboxamide], for which the IC50 is below 500 nM.

Consider `CS(=O)(=O)c1cccc(NC(=O)c2cc(C(F)(F)F)cnc2Oc2ccc(F)cc2Cl)c1` [Example 36, 2-(2-chloro-4-fluoro-phenoxy)-N-(3-methylsulfonyl-phenyl)-5-(trifluoromethyl)pyridine-3-carboxamide], for which the IC50 is below 500 nM.

With `Cc1cc(OC(F)(F)F)ccc1Oc1ncc(C(F)(F)F)cc1C(=O)Nc1cccc(S(C)(=O)=O)c1` [Example 37, N-(3-methylsulfonyl-phenyl)-2-[2-methyl-4-(trifluoromethoxy)phenoxy]-5-(trifluoromethyl)pyridine-3-carboxamide], the IC50 was below 500 nM.

With `CS(=O)(=O)c1cccc(NC(=O)c2cc(C(F)(F)F)cnc2Oc2ccc(OC(F)(F)F)cc2)c1` [Example 38, N-(3-methylsulfonyl-phenyl)-2-[4-(trifluoromethoxy)phenoxy]-5-(trifluoromethyl)pyridine-3-carboxamide], the 50% inhibitory concentration (IC50) was below 500 nM.

`CS(=O)(=O)c1cccc(NC(=O)c2cc(C(F)(F)F)cnc2Oc2ccc(OC(F)F)cc2)c1` [Example 39, 2-[4-(difluoromethoxy)phenoxy]-N-(3-methylsulfonyl-phenyl)-5-(trifluoromethyl)pyridine-3-carboxamide]: the half-maximal inhibitory concentration (IC50) is below 500 nM.

As to `CS(=O)(=O)c1cccc(NC(=O)c2cc(C(F)(F)F)cnc2Oc2ccc(OC(F)(F)F)c(F)c2)c1` [Example 40, 2-[3-fluoro-4-(trifluoromethoxy)phenoxy]-N-(3-methylsulfonyl-phenyl)-5-(trifluoromethyl)pyridine-3-carboxamide], the IC50 was below 500 nM.

Regarding `CS(=O)(=O)c1cccc(NC(=O)c2cc(C(F)(F)F)cnc2Oc2ccccc2)c1` [Example 41, N-(3-methylsulfonyl-phenyl)-2-phenoxy-5-(trifluoromethyl)pyridine-3-carboxamide], the half-inhibitory concentration (IC50) is above 1000 nM.

With `CS(=O)(=O)c1cccc(NC(=O)c2cc(C(F)(F)F)cnc2Oc2cccc(F)c2)c1` [Example 42, 2-(3-fluorophenoxy)-N-(3-methylsulfonyl-phenyl)-5-(trifluoromethyl)pyridine-3-carboxamide], the half-inhibitory concentration (IC50) is 500 to 1000 nM.

For the compound `CS(=O)(=O)c1cccc(NC(=O)c2cc(C(F)(F)F)cnc2Oc2cc(F)ccc2F)c1` [Example 43, 2-(2,5-difluorophenoxy)-N-(3-methylsulfonyl-phenyl)-5-(trifluoromethyl)pyridine-3-carboxamide], the IC50 was 500 to 1000 nM.

Regarding `Cc1ccc(Oc2ncc(C(F)(F)F)cc2C(=O)Nc2cccc(S(C)(=O)=O)c2)cc1` [Example 44, 2-(4-methylphenoxy)-N-(3-methylsulfonyl-phenyl)-5-(trifluoromethyl)pyridine-3-carboxamide], the 50% inhibitory concentration (IC50) was above 1000 nM.

Regarding `CS(=O)(=O)c1cccc(NC(=O)c2cc(C(F)(F)F)cnc2Oc2cc(F)cc(Cl)c2)c1` [Example 45, 2-(3-chloro-5-fluoro-phenoxy)-N-(3-methylsulfonyl-phenyl)-5-(trifluoromethyl)pyridine-3-carboxamide], the IC50 was above 1000 nM.

For the compound `CC(C)c1ccccc1Oc1ncc(C(F)(F)F)cc1C(=O)Nc1cccc(S(C)(=O)=O)c1` [Example 46, 2-(2-isopropylphenoxy)-N-(3-methylsulfonyl-phenyl)-5-(trifluoromethyl)pyridine-3-carboxamide], the IC50 is below 500 nM.

For `CS(=O)(=O)c1cccc(NC(=O)c2cc(C(F)(F)F)cnc2Oc2ccc(F)c(F)c2)c1` [Example 47, 2-(3,4-difluorophenoxy)-N-(3-methylsulfonyl-phenyl)-5-(trifluoromethyl)pyridine-3-carboxamide], the 50% inhibitory concentration (IC50) was below 500 nM.

In the case of `CS(=O)(=O)c1cccc(NC(=O)c2cc(C(F)(F)F)cnc2Oc2ccc(F)cc2F)c1` [Example 48, 2-(2,4-difluorophenoxy)-N-(3-methylsulfonyl-phenyl)-5-(trifluoromethyl)pyridine-3-carboxamide], the 50% inhibitory concentration (IC50) was below 500 nM.

On to `CS(=O)(=O)c1cccc(NC(=O)c2cc(C(F)(F)F)cnc2Oc2cc(F)cc(F)c2)c1` [Example 49, 2-(3,5-difluorophenoxy)-N-(3-methylsulfonyl-phenyl)-5-(trifluoromethyl)pyridine-3-carboxamide], for which the IC50 was above 1000 nM.

On to `CS(=O)(=O)c1cccc(NC(=O)c2cc(C(F)(F)F)cnc2Oc2ccc(OCC(F)(F)F)cc2)c1` [Example 50, N-(3-methylsulfonyl-phenyl)-2-[4-(2,2,2-trifluoroethoxy)phenoxy]-5-(trifluoromethyl)pyridine-3-carboxamide], for which the IC50 is below 500 nM.

`CS(=O)(=O)c1cccc(NC(=O)c2cc(C(F)(F)F)cnc2Oc2ccc(SC(F)(F)F)cc2)c1` [Example 51, N-(3-methylsulfonyl-phenyl)-5-(trifluoromethyl)-2-[4-(trifluoromethyl-sulfanyl)phenoxy]pyridine-3-carboxamide]: the IC50 was below 500 nM.

With `CN(C)c1ccccc1Oc1ncc(C(F)(F)F)cc1C(=O)Nc1cccc(S(C)(=O)=O)c1` [Example 52, 2-[2-(dimethylamino)phenoxy]-N-(3-methylsulfonyl-phenyl)-5-(trifluoromethyl)pyridine-3-carboxamide], the 50% inhibitory concentration (IC50) is 500 to 1000 nM.

For `CS(=O)(=O)c1cccc(NC(=O)c2cc(C(F)(F)F)cnc2Oc2ccccc2C(F)(F)F)c1` [Example 53, N-(3-methylsulfonyl-phenyl)-5-(trifluoromethyl)-2-[2-(trifluoromethyl)phenoxy]pyridine-3-carboxamide], the half-maximal inhibitory concentration (IC50) was below 500 nM.

Take `COc1ccc(Oc2ncc(C(F)(F)F)cc2C(=O)Nc2cccc(S(C)(=O)=O)c2)c(OC)c1` [Example 54, 2-(2,4-dimethoxyphenoxy)-N-(3-methylsulfonyl-phenyl)-5-(trifluoromethyl)pyridine-3-carboxamide]: the half-inhibitory concentration (IC50) was below 500 nM.

(Values after US12234221B2, “Pyridine carboxamide compounds for inhibiting NAV1.8” (Lieber Institute, Inc., priority 2018, dated 2025).)
